From PubChem BioAssay (NCI)
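GI50 marks 50% less growth. TGI marks complete inhibition of growth.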 Numbered stars: 1 amine (or outer) side, 2 acyl side, 3 side chain; on linkers, the order of the positions; unused ones are H or OH. Bridge positions count the residues as written; N and C are the ends. Square brackets hold non-standard residues; d marks the D form. Peptide text beside a SMILES is read from it. I, II: the chains in the order shown. Actinocin(9to1) = Cc1c2oc3c(C)ccc(C(=O)[*:1])c3nc-2c(C(=O)[*:2])c(N)c1=O; aThr = C[C@H](O)[C@H](N)C(=O)O; NMeV = CN[C@H](C(=O)O)C(C)C; Sar = CNCC(=O)O

Tests used:
Assay in all cases: inhibition of tumour cell growth, NCI panel, 384-well format
[1] = system: PC-3 prostate
[2] = system: HCT-15 colon
[3] = system: ACHN renal
[4] = system: A498 renal
[5] = system: SW-620 colon
[6] = system: IGROV1 ovarian
[7] = system: NCI/ADR-RES ovarian
[8] = system: UO-31 renal
[9] = system: A549 NSCLC
[10] = system: M14 melanoma
[11] = system: EKVX NSCLC
[12] = system: 786-0 renal
[13] = system: OVCAR-4 ovarian
[14] = system: BT-549 breast
[15] = system: UACC-257 melanoma
[16] = system: OVCAR-8 ovarian
[17] = system: OVCAR-5 ovarian
[18] = system: NCI-H23 lung
[19] = system: SK-OV-3 ovarian
[20] = system: HL-60(TB) leukemia
[21] = system: DU-145 prostate
[22] = system: NCI-H322M lung
[23] = system: LOX IMVI melanoma
[24] = system: COLO 205 colon
[25] = system: SK-MEL-28 melanoma
[26] = system: HS 578T breast
[27] = system: SNB-19 CNS
[28] = system: U251 glioblastoma
[29] = system: HCC-2998 colon
[30] = system: CAKI-1 renal
[31] = system: OVCAR-3 ovarian
[32] = system: KM12 colon
[33] = system: HOP-92 NSCLC
[34] = system: MDA-MB-231 breast
[35] = system: MALME-3M melanoma
[36] = system: SF-295 CNS
[37] = system: SF-539 CNS
[38] = system: SF-268 CNS
[39] = system: SN12C renal
[40] = system: MDA-MB-435 melanoma
[41] = system: HT29 colon
[42] = system: HCT-116 colon
[43] = system: NCI-H226 lung
[44] = system: HOP-62 NSCLC
[45] = system: MDA-MB-468 breast
[46] = system: UACC-62 melanoma
[47] = system: RXF 393 renal
[48] = system: SK-MEL-5 melanoma
[49] = system: TK-10 renal
[50] = system: RPMI-8226 leukemia
[51] = system: SNB-75 CNS
[52] = system: SR leukemia
[53] = system: T-47D breast
[54] = system: MOLT-4 leukemia
[55] = system: MCF7 breast
[56] = system: NCI-H460 NSCLC
[57] = system: NCI-H522 lung

Cc1c2oc3c(C)ccc(C(=O)N[C@@H]4C(=O)N[C@H](C(C)C)C(=O)N5CCC[C@H]5C(=O)N(C)CC(=O)N(C)[C@@H](C(C)C)C(=O)O[C@H]4C)c3nc-2c(C(=O)N[C@@H]2C(=O)N[C@H](C(C)C)C(=O)N3CCC[C@H]3C(=O)N(C)CC(=O)N(C)[C@@H](C(C)C)C(=O)O[C@H]2C)c(N)c1=O (I: [aThr][dV]P[Sar][NMeV] / II: [aThr][dV]P[Sar][NMeV]; ester I:1-I:C, II:1-II:C; linker I:N-II:N via Actinocin(9to1))
TGI [1]: 0.0571 µM | TGI [2]: 0.069 µM | TGI [3]: 0.0165 µM | TGI [4]: < 0.0165 µM | TGI [5]: < 0.0351 µM | TGI [6]: 0.0138 µM | GI50 [7]: 0.571 µM | TGI [7]: 2.83 µM | GI50 [8]: < 0.0119 µM | TGI [8]: 0.0268 µM | TGI [9]: 1.37 µM | TGI [10]: < 0.0112 µM | TGI [11]: 0.0435 µM | TGI [12]: 0.0188 µM | TGI [13]: < 0.0266 µM

NC1(C(=O)N[C@@H](CCO)c2ccc(Cl)cc2)CCN(c2ncnc3[nH]ccc23)CC1
GI50 [14]: 0.863 µM | TGI [14]: 18.9 µM | GI50 [15]: 4.55 µM | TGI [15]: 25.7 µM | GI50 [1]: 0.629 µM | TGI [1]: > 100 µM | GI50 [16]: 26.4 µM | TGI [16]: > 100 µM | GI50 [17]: 21.9 µM | TGI [17]: 96.1 µM | GI50 [18]: 15 µM | TGI [18]: 65.8 µM | GI50 [19]: 1.02 µM | TGI [19]: > 100 µM | GI50 [20]: 12.7 µM | TGI [20]: 25.9 µM | GI50 [2]: 14.7 µM | TGI [2]: > 100 µM | GI50 [21]: 22.6 µM | TGI [21]: > 100 µM | GI50 [22]: 16.2 µM | TGI [22]: > 100 µM | GI50 [23]: 22.4 µM | TGI [23]: > 100 µM | GI50 [3]: 13.1 µM | TGI [3]: > 100 µM | GI50 [24]: 5.9 µM | TGI [24]: 73.6 µM | GI50 [25]: 4.49 µM | TGI [25]: > 100 µM | GI50 [26]: 0.6 µM | TGI [26]: 47 µM | GI50 [27]: 18.8 µM | TGI [27]: > 100 µM | GI50 [28]: 5.38 µM | TGI [28]: > 100 µM | GI50 [29]: 2.61 µM | TGI [29]: > 100 µM | GI50 [30]: 10.9 µM | TGI [30]: > 100 µM | GI50 [31]: 23.3 µM | TGI [31]: > 100 µM | GI50 [4]: 0.394 µM | TGI [4]: 26.7 µM | GI50 [32]: 1.08 µM | TGI [32]: > 100 µM | GI50 [33]: > 100 µM | TGI [33]: > 100 µM | GI50 [34]: 84.9 µM | TGI [34]: > 100 µM | GI50 [35]: 2.43 µM | TGI [35]: 15.3 µM | GI50 [36]: 1.14 µM | TGI [36]: 17 µM | GI50 [37]: 0.41 µM | TGI [37]: 57.7 µM | GI50 [38]: 23.8 µM | TGI [38]: > 100 µM | GI50 [39]: 0.815 µM | TGI [39]: 25.5 µM | GI50 [40]: 6.05 µM | TGI [40]: 87.8 µM | GI50 [41]: 4.22 µM | TGI [41]: > 100 µM | GI50 [42]: 10.6 µM | TGI [42]: > 100 µM | GI50 [43]: 13 µM | TGI [43]: 78.6 µM | GI50 [6]: 0.121 µM | TGI [6]: 2.09 µM | GI50 [44]: 21.1 µM | TGI [44]: > 100 µM | GI50 [45]: 0.279 µM | TGI [45]: 14.7 µM | GI50 [46]: 2.2 µM | TGI [46]: 18.6 µM | GI50 [7]: > 100 µM | TGI [7]: > 100 µM | GI50 [47]: 1.2 µM | TGI [47]: 44 µM | GI50 [48]: 10 µM | TGI [48]: 29.6 µM | GI50 [9]: 19.7 µM | TGI [9]: > 100 µM | GI50 [49]: 3.3 µM | TGI [49]: > 100 µM | GI50 [10]: 6.69 µM | TGI [10]: 27.6 µM | GI50 [11]: 5.28 µM | TGI [11]: > 100 µM | GI50 [50]: 21.5 µM | TGI [50]: 84 µM | GI50 [51]: 0.366 µM | TGI [51]: 35.8 µM | GI50 [52]: 1.07 µM | TGI [52]: 4.49 µM | GI50 [53]: 0.423 µM | TGI [53]: > 100 µM | GI50 [54]: 0.453 µM | TGI [54]: 1.88 µM | GI50 [55]: 0.437 µM | TGI [55]: > 100 µM | GI50 [56]: 0.631 µM | TGI [56]: 25.2 µM | GI50 [57]: 9.74 µM | TGI [57]: 24.2 µM | GI50 [13]: 88.3 µM | TGI [13]: > 100 µM
